{"source": "patent US8362227B2", "about": "“Detection of clostridium difficile” (Mayo Foundation for Medical Education and Research, priority 2008, dated 2013)", "test_system": "C. difficile culture positive isolates", "test": "Agar dilution MIC testing of anaerobes (moxifloxicin susceptibility)", "assay_type": "cell-based, Clostridium difficile", "conditions": "for Susceptibility to Moxifloxicin, I = 4 (number of specimens): I = intermediate; for Susceptibility to Moxifloxicin, I = 4 (number of specimens) / Susceptibility to Moxifloxicin, R > 8 (number of specimens) / Susceptibility to Moxifloxicin, S ≦ 2 (number of specimens): agar dilution; for Susceptibility to Moxifloxicin, R > 8 (number of specimens): R = resistant; for Susceptibility to Moxifloxicin, S ≦ 2 (number of specimens): S = susceptible", "procedure": "Moxifloxicin susceptibility testing by agar dilution was performed on all C. difficile culture positive isolates. Growth from subculture plates was suspended in pre-reduced Schaedler's broth to McFarland 0.5 turbidity. A Steers replicator seed block was used to inoculate the moxifloxicin plate from lowest to highest dilution. The inoculated media was incubated under anaerobic conditions for 48 hours before endpoint determination was read. The testing was performed and interpreted as defined in CLSI document M11-A7.", "key": {"[1]": {"conditions": "LIGHTCYCLER PCR bp deletions demonstrated in tcdC"}, "[2]": {"conditions": "LIGHTCYCLER PCR no deletions demonstrated"}}, "data": [{"molecule": "COc1c(N2C[C@@H]3CCCN[C@@H]3C2)c(F)cc2c(=O)c(C(=O)O)cn(C3CC3)c12", "note": "[Moxifloxicin]", "values": [{"measurement": "specimens with tcdC gene deletions showing resistance to moxifloxicin", "setting": "13 specimens with the tcdC gene deletions", "result": 46, "unit": "%"}, {"measurement": "Susceptibility to Moxifloxicin, I = 4 (number of specimens)", "setting": "[1]", "result": 0}, {"measurement": "Susceptibility to Moxifloxicin, R > 8 (number of specimens)", "setting": "[1]", "result": 6}, {"measurement": "Susceptibility to Moxifloxicin, S ≦ 2 (number of specimens)", "setting": "[1]", "result": 7}, {"measurement": "Susceptibility to Moxifloxicin, I = 4 (number of specimens)", "setting": "[2]", "result": 2}, {"measurement": "Susceptibility to Moxifloxicin, R > 8 (number of specimens)", "setting": "[2]", "result": 7}, {"measurement": "Susceptibility to Moxifloxicin, S ≦ 2 (number of specimens)", "setting": "[2]", "result": 20}, {"measurement": "Susceptibility to Moxifloxicin, I = 4 (number of isolates)", "setting": "Total, all 49 C. difficile culture positive isolates, intermediate at 4 μg/mL", "result": 2}, {"measurement": "Susceptibility to Moxifloxicin, I = 4 (number of isolates)", "setting": "Total, all 49 C. difficile culture positive isolates, intermediate at 4 μg/mL, listed as moxifloxicin", "result": "two"}, {"measurement": "Susceptibility to Moxifloxicin, R > 8 (number of isolates)", "setting": "Total, all 49 C. difficile culture positive isolates, resistant", "result": 13}, {"measurement": "Susceptibility to Moxifloxicin, S ≦ 2 (number of isolates)", "setting": "Total, all 49 C. difficile culture positive isolates, susceptible at ≦2 μg/mL", "result": 32}, {"measurement": "Susceptibility to Moxifloxicin, S ≦ 2 (number of isolates)", "setting": "Total, all 49 C. difficile culture positive isolates, susceptible at ≦2 μg/mL, listed as moxifloxicin", "result": "Thirty-two"}, {"measurement": "culture positive isolates intermediate to moxifloxicin", "setting": "intermediate at 4 μg/mL, 49 C. difficile culture positive isolates", "result": 4, "unit": "%"}, {"measurement": "culture positive isolates resistant to moxifloxicin", "setting": "resistant at ≧8 μg/mL, 49 C. difficile culture positive isolates", "result": 26, "unit": "%"}, {"measurement": "culture positive isolates susceptible to moxifloxicin", "setting": "susceptible at ≦2 μg/mL, 49 C. difficile culture positive isolates", "result": 65, "unit": "%"}]}]}
